Reference: patent publication US11267812B2 (Mirati Therapeutics, Inc., priority 2016, dated 2022)

Test system: Phospho-ERK in NCI-H358 cells expressing KRas G12C
Assay: Cellular inhibition of KRas G12C by Phospho-ERK measurement in NCI-H358 cells
Format: cell-based
Settings: Homo sapiens; NCI-H358 cells, 3 hours compound treatment; read-out: IC50 (pERK(Thr202/Tyr204) normalized with GAPDH)
Procedure: The cellular inhibition of KRAs G12C by exemplary compounds of the present invention was determined by measuring the amount of a downstream marker of KRas activity, phosphorylated ERK (“Phospho-ERK”).
NCI-H358 cells (ATCC CRL-5807) express KRas G12C and were grown in RPMI medium supplemented with 10% fetal bovine serum, penicillin/streptomycin and 10 mM HEPES. Cells were plated in poly-D-Lysine coated 96-well plates at a concentration of 50,000 cells/well and allowed to attach for 8-12 hours. Diluted compounds were then added at a final concentration of 0.5% DMSO. After 3 hours, the medium was removed, 150 μL of 4% formaldehyde was added and the plates were incubated for 20 minutes. The plates were washed with PBS, and permeabilized using 150 μL of ice cold 100% methanol for 10 minutes. Non-specific antibody binding to the plates was blocked using 100 μL Licor Blocking Buffer (Li-Cor Biotechnology, Lincoln Nebr.) for 1 hour at room temperature. Positive control samples and samples lacking cells were parallel processed with test samples as standards.
The amount Phospho-ERK was determined using an antibody specific for the phosphorylated form of ERK and compared to the amount of GAPDH. Primary antibodies used for detection were added as follows: Phospho-ERK (Cell Signaling cs9101) diluted 1:500 and GAPDH (Millipore MAB374) diluted 1:5000 in Licor block+0.05% Tween 20. The plates were incubated for 2 hours at room temperature. The plates were washed with PBS+0.05% Tween 20.
Secondary antibodies used to visualize primary antibodies were added as follows: Anti-rabbit-680 diluted 1:1000 and Anti-mouse-800 diluted 1:1000 in Licor Block+0.050 Tween 20 and incubated for 1 hour at room temperature. The plates were washed with PBS+0.05% o Tween 20. A100 L aliquot of PBS was added to each well and the plates were read on a LICOR AERIUS plate reader.
The pERK(Thr202/Tyr204) signal was normalized with the GAPDH signal and percent of DMSO control values were calculated. IC50 values were generated using a 4 parameter fit of the dose response curve. Key: “A”≥0.001-≤1 μM; “B”[…] and ND=not determined.

**Q.** With `C=CC(=O)N1CCN(c2nc(OCCCN3CCOCC3)nc3c2CCN(c2cc(O)ccc2OC(F)(F)F)C3)CC1` [Example 90, 1-(4-(7-(5-hydroxy-2-(trifluoromethoxy)phenyl)-2-(3-morpholinopropoxy)-5,6,7,8-tetrahydropyrido[3,4-d]pyrimidin-4-yl)piperazin-1-yl)prop-2-en-1-one] as the molecule, how does the IC50 read?
**A.** 1 to 1000 nM

**Q.** `C=CC(=O)N1CCN(c2nc(OC[C@@H]3CCCN3C)nc3c2CCN(c2cc(O)cc4ccccc24)C3)[C@@H](C)C1` [Example 202, 1-((S)-4-(7-(3-hydroxynaphthalen-1-yl)-2-(((S)-1-methylpyrrolidin-2-yl)methoxy)-5,6,7,8-tetrahydropyrido[3,4-d]pyrimidin-4-yl)-3-methylpiperazin-1-yl)prop-2-en-1-one] was tested. Which IC50 did it give?
**A.** 1 to 1000 nM

**Q.** For `C=CC(=O)N1CCN(c2nc(OC[C@@H]3CCCCN3C)nc3c2CCN(c2cc(O)cc4ccccc24)C3)CC1` [Example 196, (S)-1-(4-(7-(3-hydroxynaphthalen-1-yl)-2-((1-methylpiperidin-2-yl)methoxy)-5,6,7,8-tetrahydropyrido[3,4-d]pyrimidin-4-yl)piperazin-1-yl)prop-2-en-1-one], which IC50 is on record?
**A.** 1 to 1000 nM

**Q.** How did the IC50 turn out when `C=CC(=O)N1CCN(c2nc(OCC3CCN(CCOC)C3)nc3c2CCN(c2cc(O)cc4ccccc24)C3)CC1` (stereo not shown) [Example 103, 1-(4-(7-(3-hydroxynaphthalen-1-yl)-2-((1-(2-methoxyethyl)pyrrolidin-3-yl)methoxy)-5,6,7,8-tetrahydropyrido[3,4-d]pyrimidin-4-yl)piperazin-1-yl)prop-2-en-1-one] was run?
**A.** 1 to 1000 nM

**Q.** With `C=CC(=O)N1CCN(c2nc(OCCCN3CCN(C(C)=O)CC3)nc3c2CCN(c2cc(O)cc4ccccc24)C3)CC1` [Example 135, 1-[4-[2-[3-(4-acetylpiperazin-1-yl)propoxy]-7-(3-hydroxy-1-naphthyl)-6,8-dihydro-5H-pyrido[3,4-d]pyrimidin-4-yl]piperazin-1-yl]prop-2-en-1-one] as the molecule, how does the IC50 read?
**A.** 1 to 1000 nM

**Q.** For `C=CC(=O)N1CCN(c2nc(OC[C@@H]3CN(C)CCN3)nc3c2CCN(c2cccc4ccccc24)C3)CC1CC#N` (stereo partly drawn) [Example 223, 2-(1-acryloyl-4-(2-(((S)-4-methylpiperazin-2-yl)methoxy)-7-(naphthalen-1-yl)-5,6,7,8-tetrahydropyrido[3,4-d]pyrimidin-4-yl)piperazin-2-yl)acetonitrile], which IC50 is on record?
**A.** 1 to 1000 nM

**Q.** With `C=CC(=O)N1CCN(c2nc(OC[C@@H]3CCCN3C)nc3c2CCN(c2c(C)ccc4cn[nH]c24)C3)CC1CC#N` (stereo partly drawn) [Example 238, 2-(1-acryloyl-4-(7-(6-methyl-1H-indazol-7-yl)-2-(((S)-1-methylpyrrolidin-2-yl)methoxy)-5,6,7,8-tetrahydropyrido[3,4-d]pyrimidin-4-yl)piperazin-2-yl)acetonitrile] as the molecule, how does the IC50 read?
**A.** 1 to 1000 nM

**Q.** For `C=CC(=O)N1CCN(c2nc(OCC(C)(C)N(C)C)nc3c2CCN(c2cccc4ccccc24)C3)CC1CC#N` (stereo not shown) [Example 269, 2-(1-acryloyl-4-(2-(2-(dimethylamino)-2-methylpropoxy)-7-(naphthalen-1-yl)-5,6,7,8-tetrahydropyrido[3,4-d]pyrimidin-4-yl)piperazin-2-yl)acetonitrile], which IC50 is on record?
**A.** 1 to 1000 nM

**Q.** Which IC50 does the source give for `C=CC(=O)N1CCN(c2nc(OC[C@@H]3CCCN3C)nc3c2CCN(c2cccc(Cl)c2C(F)(F)F)C3)CC1CC#N` (stereo partly drawn) [Example 277, 2-(1-acryloyl-4-(7-(3-chloro-2-(trifluoromethyl)phenyl)-2-(((S)-1-methylpyrrolidin-2-yl)methoxy)-5,6,7,8-tetrahydropyrido[3,4-d]pyrimidin-4-yl)piperazin-2-yl)acetonitrile] here?
**A.** 1 to 1000 nM

**Q.** With `C=CC(=O)N1CCN(c2nc(OCCN3CCC(OC)CC3)nc3c2CCN(c2cc(O)cc4ccccc24)C3)CC1` [Example 108, 1-(4-(7-(3-hydroxynaphthalen-1-yl)-2-(2-(4-methoxypiperidin-1-yl)ethoxy)-5,6,7,8-tetrahydropyrido[3,4-d]pyrimidin-4-yl)piperazin-1-yl)prop-2-en-1-one] as the molecule, how does the IC50 read?
**A.** 1 to 1000 nM

**Q.** How did the IC50 turn out when `C=CC(=O)N1CCN(c2nc(O[C@@H]3CCCN(C)C3)nc3c2CCN(c2cc(O)cc4ccccc24)C3)CC1` [Example 67, (R)-1-(4-(7-(3-hydroxynaphthalen-1-yl)-2-((1-methylpiperidin-3-yl)oxy)-5,6,7,8-tetrahydropyrido[3,4-d]pyrimidin-4-yl)piperazin-1-yl)prop-2-en-1-one] was run?
**A.** 1 to 1000 nM

**Q.** How did the IC50 turn out when `C=CC(=O)N1CCN(c2nc(OC[C@H]3CCCN3C)nc3c2CCN(c2c(C(F)(F)F)ccc4[nH]ncc24)C3)CC1CC#N` (stereo partly drawn) [Example 243, 2-[4-[2-[[(2R)-1-methylpyrrolidin-2-yl]methoxy]-7-[5-(trifluoromethyl)-1H-indazol-4-yl]-6,8-dihydro-5H-pyrido[3,4-d]pyrimidin-4-yl]-1-prop-2-enoyl-piperazin-2-yl]acetonitrile] was run?
**A.** 1 to 1000 nM

**Q.** With `C=CC(=O)N1CCN(c2nc(OC[C@@H]3CCCN3CCOC)nc3c2CCN(c2cc(O)cc4ccccc24)C3)CC1` [Example 144, (S)-1-(4-(7-(3-hydroxynaphthalen-1-yl)-2-((1-(2-methoxyethyl)pyrrolidin-2-yl)methoxy)-5,6,7,8-tetrahydropyrido[3,4-d]pyrimidin-4-yl)piperazin-1-yl)prop-2-en-1-one] as the molecule, how does the IC50 read?
**A.** 1 to 1000 nM

**Q.** `C=CC(=O)N1CCN(c2nc(OC[C@@H]3CCCN3C(C)C)nc3c2CCN(c2cc(O)cc4ccccc24)C3)CC1` [Example 145, 1-[4-[7-(3-hydroxy-1-naphthyl)-2-[[(2S)-1-isopropylpyrrolidin-2-yl]methoxy]-6,8-dihydro-5H-pyrido[3,4-d]pyrimidin-4-yl]piperazin-1-yl]prop-2-en-1-one] was tested. Which IC50 did it give?
**A.** 1 to 1000 nM

**Q.** For `C=CC(=O)N1CCN(c2nc(OC[C@@H]3COCCN3C)nc3c2CCN(c2cccc4ccccc24)C3)CC1CC#N` (stereo partly drawn) [Example 272, 2-(1-acryloyl-4-(2-(((S)-4-methylmorpholin-3-yl)methoxy)-7-(naphthalen-1-yl)-5,6,7,8-tetrahydropyrido[3,4-d]pyrimidin-4-yl)piperazin-2-yl)acetonitrile], which IC50 is on record?
**A.** 1 to 1000 nM

**Q.** How did the IC50 turn out when `C=CC(=O)N1CCN(c2nc(OC[C@@H]3CCCN3C)nc3c2CCN(c2c(C(F)(F)F)ccc4[nH]ncc24)C3)CC1` [Example 156, (S)-1-(4-(2-((1-methylpyrrolidin-2-yl)methoxy)-7-(5-(trifluoromethyl)-1H-indazol-4-yl)-5,6,7,8-tetrahydropyrido[3,4-d]pyrimidin-4-yl)piperazin-1-yl)prop-2-en-1-one] was run?
**A.** 1 to 1000 nM

**Q.** Which IC50 does the source give for `C=CC(=O)N1CCN(c2nc(OC[C@@H]3CN(C)CCO3)nc3c2CCN(c2cccc4ccccc24)C3)CC1CC#N` (stereo partly drawn) [Example 271, 2-(1-acryloyl-4-(2-(((S)-4-methylmorpholin-2-yl)methoxy)-7-(naphthalen-1-yl)-5,6,7,8-tetrahydropyrido[3,4-d]pyrimidin-4-yl)piperazin-2-yl)acetonitrile] here?
**A.** 1 to 1000 nM

**Q.** `C=CC(=O)N1CCN(c2nc(OC[C@H]3CN(C)CCO3)nc3c2CCN(c2cccc4ccccc24)C3)CC1CC#N` (stereo partly drawn) [Example 270, 2-(1-acryloyl-4-(2-(((R)-4-methylmorpholin-2-yl)methoxy)-7-(naphthalen-1-yl)-5,6,7,8-tetrahydropyrido[3,4-d]pyrimidin-4-yl)piperazin-2-yl)acetonitrile] was tested. Which IC50 did it give?
**A.** 1 to 1000 nM

**Q.** `C=CC(=O)N1CCN(c2nc(OC[C@@H]3CCCN3CC)nc3c2CCN(c2cc(O)cc4ccccc24)C3)CC1` [Example 197, (S)-1-(4-(2-((1-ethylpyrrolidin-2-yl)methoxy)-7-(3-hydroxynaphthalen-1-yl)-5,6,7,8-tetrahydropyrido[3,4-d]pyrimidin-4-yl)piperazin-1-yl)prop-2-en-1-one] was tested. Which IC50 did it give?
**A.** 1 to 1000 nM

**Q.** `C=CC(=O)N1CCN(c2nc(OC[C@@H]3CCCN3C)nc3c2CCN(c2cccc(F)c2C(F)(F)F)C3)CC1CC#N` (stereo partly drawn) [Example 230, 2-(1-acryloyl-4-(7-(3-fluoro-2-(trifluoromethyl)phenyl)-2-(((S)-1-methylpyrrolidin-2-yl)methoxy)-5,6,7,8-tetrahydropyrido[3,4-d]pyrimidin-4-yl)piperazin-2-yl)acetonitrile] was tested. Which IC50 did it give?
**A.** 1 to 1000 nM

**Q.** `C=CC(=O)N1CCN(c2nc(OC[C@@H]3CCCN3C)nc3c2CCN(c2cncc4ccccc24)C3)CC1CC#N` (stereo partly drawn) [Example 260, 2-[4-[7-(4-isoquinolyl)-2-[[(2S)-1-methylpyrrolidin-2-yl]methoxy]-6,8-dihydro-5H-pyrido[3,4-d]pyrimidin-4-yl]-1-prop-2-enoyl-piperazin-2-yl]acetonitrile] was tested. Which IC50 did it give?
**A.** 1 to 1000 nM

**Q.** Which IC50 does the source give for `C=CC(=O)N1CCN(c2nc(OCC3CCN(C4CCCCC4)C3)nc3c2CCN(c2cc(O)cc4ccccc24)C3)CC1` (stereo not shown) [Example 132, 1-[4-[2-[(1-cyclohexylpyrrolidin-3-yl)methoxy]-7-(3-hydroxy-1-naphthyl)-6,8-dihydro-5H-pyrido[3,4-d]pyrimidin-4-yl]piperazin-1-yl]prop-2-en-1-one] here?
**A.** 1 to 1000 nM
